One experiment concerns the target T1, mCAR (Mus musculus, UniProt O35627).
T1 construct: expressed in transfected cells; host or cells: monkey kidney CV-1 cells and human hepatoma HepG2 cells
T1 sequence (O35627 1-358): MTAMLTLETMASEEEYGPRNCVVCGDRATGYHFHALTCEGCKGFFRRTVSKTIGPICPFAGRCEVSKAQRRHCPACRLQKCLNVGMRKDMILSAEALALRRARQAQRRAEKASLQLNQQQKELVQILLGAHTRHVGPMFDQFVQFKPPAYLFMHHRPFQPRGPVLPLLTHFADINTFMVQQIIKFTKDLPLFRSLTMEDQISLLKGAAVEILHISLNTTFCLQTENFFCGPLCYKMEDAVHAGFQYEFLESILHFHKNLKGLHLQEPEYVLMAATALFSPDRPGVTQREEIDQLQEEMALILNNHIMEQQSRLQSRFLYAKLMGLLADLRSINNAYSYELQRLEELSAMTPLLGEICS
In words: Transactivation assays of human ALAS1 fragments with mCAR in CV-1 and HepG2 cells. The format is cell-based. Here is the method: In transactivation assays in a heterologous cell line (monkey kidney CV-1 cells) and human hepatoma HepG2 cells, we assessed which nuclear receptor conveys the observed activation. The two candidate receptors pregnane X receptor (PXR) and constitutive androstane receptor (CAR) were tested on these fragments.

For experiment [1], the system named is human ALAS1 gene fragments (hA795, hA174, hA8, hA240). In words: Luciferase reporter gene assay of human ALAS1 fragments in LMH cells. It counts as cell-based. The settings on record: 24 h, 400 μM PB or 250 μM PIA. Here is the method:
Fragments were cloned into the pGL3 luciferase reporter vector (Promega Corp) and tested for inducibility by the prototypical HALAS1 inducers phenobarbital (PB) and propylisopropylacetamid (PIA). Four hours after transfection of LMH cells with the constructs, cells were exposed to the drugs for 24 hours, after which luciferase activity was assayed. Results were normalized for transfection efficiency by assaying for activity of co-transfected β-galactosidase. Data shown is one representative experiment (FIG. 11).
We investigated in more detail the contribution of various response element half-sites to drug-induction mediated by this element. Within the hA174 element, an arrangement of three nuclear receptor response element half-sites was found, which lead: to the prediction of a DR-4 type, as well as a DR-5 type response element (of. FIG. 18A). By site-directed mutagenesis, we examined the involvement of each of these half-sites to drug induction. In the context of the 2xhA174 reporter construct, each single half-site was mutated in both copies of the hA174 element. The wild-type and mutant constructs were subsequently tested for reporter gene activation in LMH cells as described above. Cells were induced with 400 μM phenobarbital (PB) or 250 μM propylisopropylacetamid (PIA). As a control, vehicle alone (0.1% DMSO) was added to the cells. After 24 hours, luciferase activity was assayed and normalized against co-transfected β-galactosidase activity in order to compensate for transfection efficiency. […] From this, we conclude that the DR-4 element, consisting of the HS1 and HS2 half-sites, is essential for drug induction. The change in induction observed by mutagenesis of the HS3 half-site may indicate a modulatory role for the half-site alone or as a DR-5 in combination with HS2 in drug induction. Data shown are the mean+1SD of three independent experiments.
In order to define a core sequence retaining inducibility, the hA8 fragment (Seq. Id. No. 10), which carries PCR-introduced KpnI and XhoI restriction sites at its ends, was digested with SacI and NsiI. The resulting four fragments, a 100 bp KpnI/SacI fragment, a 374 bp SacI/NsiI fragment, a 240 bp NsiI/NsiI fragment, and a 231 bp NsiI/XhoI fragment, were cloned into a reporter gene vector and subsequently tested for drug induction in LMH cells. Of these fragments, only the 240 bp fragment (called hA240) (Seq. Id. No. 39) was able to convey transcriptional activation in response to drugs. Within the core hA240 fragment, we then mutated both half-sites of a predicted DR-4 element (cf. FIG. 18B) and observed the effect of this mutation on drug induction (240mutDR4). Alteration of the DR4 element half-sites abolished drug induction in LMH cell reporter gene assays. […]
(In general: A reporter such as luciferase makes a cellular process visible.)

The next experiment relates to ALAS1 mRNA. In words: ALAS1 mRNA quantification (Taqman real-time PCR) in LMH cells. The format is cell-based, chicken. The procedure: We next wanted to compare ADRES-mediated ALAS1 induction levels from reporter gene assays with stimulation of transcription in a physiological system. […] In addition, the common CYP3A inducers dexamethasone (50 μM), metyrapone (400 μM), and 10 μM mifepristone (RU-486) were employed for comparison. We were also interested in the effects of […] 5-pregnen-3β-ol-20-one-16α-carbonitrile (PCN) and rifampicin (100 μM) due to their species-specific effects on PXR activation and CYP3A induction. Messenger RNA was reverse transcribed and levels of ALAS1 cDNA were quantified using the Taqman real-time PCR quantification system as described in Materials and Methods. […] This value was chosen to represent 100% induction, against which all other values are compared.
LMH cells were plated onto 12-well plates, expanded to 70-80% surface density and incubated in serum-free media for 24 h. Cells were then exposed to either drug or vehicle and RNA was isolated with Trizol reagent (Gibco BRL) according to the manufacturer protocol. One μg of total RNA was reverse transcribed with the Moloney murine leukemia virus reverse transcriptase kit (Roche Molecular Biochemicals). PCR was performed using the Taqman PCR core reagent kit (PE Applied Biosystems) and transcript levels quantitated with an ABI Prism 7700 sequence detection system (PE Applied Biosystems). Relative transcript levels were determined using the relative quantitation method measuring the ΔΔCt. The following primers and probes were used in these reactions. […] Transcript levels were measured in separate tubes and GAPDH values were used for normalization of ALAS1 values.
A general note: In qPCR the cycle at which signal appears reflects the starting amount.

The test system of experiment [2] is chicken ALAS1 drug responsive enhancer sequence (ADRES) elements. In words: Luciferase reporter gene assay of chicken ALAS1 5'-flanking fragments / ADRES elements in transfected LMH cells. The format is cell-based. As to conditions: for ADRES activation in reporter assays: PIA 250 μM, glutethimide 500 μM, metyrapone 400 μM, dexamethasone 50 μM, RU-486 10 μM, rifampicin 100 μM, TCPOBOP 10 μM, compared with PB 600 μM. Here is the method: The constructs were transfected together with a transfection-control construct expressing β-galactosidase into LMH cells. Cells were then treated with 600 μM PB for 16 h and luciferase assays were performed on the cell extracts. Relative luciferase levels are standardized against cells transfected with vector containing no insert and expressed as fold induction. Experiments were repeated at least three times and data from a representative experiment tested in triplicate are shown here. Error bars represent standard deviations;
Three major subclones were generated from the region upstream of the transcriptional start site, including a 3282 bp SmaI fragment and 5056 bp and 7973 bp EcoRI segments (FIG. 1A). The SmaI clone extends from −167 bp to −3449 bp, whereas the EcoRI subfragments span the regions from −2347 bp to −7402 bp and −7403 bp to −15376 bp, respectively. These subfragments were cloned into the pLucMCS modified luciferase vector containing an SV40 promoter as described in Materials and Methods. Drug inducibility was measured in transiently transfected LMH cells treated with 600 μM PB and compared with control values. […]
The modified enhancers were examined for response to 600 μM PB in luciferase reporter gene assays and the results are presented in FIG. 3.
Leghorn Male Hepatoma (LMH) cells were obtained from the American Type Culture Collection and cultivated in 10 cm dishes in Williams E medium supplemented with 10% FCS, 1% glutamine (2 mM) and 1% penicillin/streptomycin (50 IU/ml). Dishes coated with 0.1% gelatin were used for routine culture of LMH cells in order to facilitate proper seating of the cells onto the plastic plate surface.

The subject of the next experiment is mouse 369 bp DRES. In words: Luciferase reporter gene assay of mouse ALAS1 fragments / 369 bp DRES in LMH cells. The settings on record: metyrapone 500 μM, glutethimide 500 μM, PIA 250 μM. It counts as cell-based. The procedure: A 175 bp fragment (441 to 615) (Seq. Id. No. 3) was isolated by digesting the 2.6 kb fragment with SacI/XbaI. All fragments were subcloned in the pGL3LUCpro+MCS vector and the resulting constructs tested for inducibility in LMH reporter gene assay (FIG. 6). […] The 369 bp fragment was termed Drug responsive enhancer sequence DRES.
To compare the 369 bp DRES to other inducible fragments, a series of different drugs was used as inducers: clothrimazole (Clo, 10 μM), dexamethasone (Dex, 50 μM), glutethimide (GE, 500 μM), metyrapone (Met, 500 μM), phenobarbital (PB, 500 μM), PCN (10 μM), propylisopropylacetamide (PIA, 250 μM), rifampicin (Rif, 10 μM), RU486 (10 μM), TCPOBOP (10 μM).
Data shown is from two independent experiments.

In the next experiment the target is T2, mouse CAR (Mus musculus, UniProt O35627).
T2 construct: expressed in transfected cells; host or cells: CV-1 cells, pSG5 expression vector
T2 sequence (O35627 1-358): T1 sequence (O35627 1-358)
In words: Transactivation of 369 bp ADRES by mouse CAR in CV-1 cells (CAT reporter). The format is cell-based. As to conditions: TCPOBOP, 16 h. The procedure: To test the effects of the mutations on transcriptional activation, transactivations in CV-1 cells with mouse PXR and mouse CAR and their respective inducers PCN and TCPOBOP, were performed (FIG. 14). The inducible DNA constructs were subcloned into the CAT5 reporter vector and tested for their ability to be transactivated by nuclear receptor transcription factors in CV-1 cells. Mouse PXR (A) and mouse CAR (B) coding regions cloned into the pSG5 expression vector were cotransfected along with a vector expressing pSV β-galactosidase as control. Cells were then treated for 16 h with either drugs (A, PCN; B, TCPOBOP) or vehicle control and cell extracts were analyzed for CAT expression normalized against β-galactosidase levels. Experiments were repeated at least three times and error bars represent standard deviations.

Structures are written as SMILES. Read-outs that look alike come from different tables or passages of the source.

Take `C[C@]12CC[C@@H](O)C[C@@H]1CC[C@@H]1[C@@H]2CC[C@]2(C)C=CC[C@@H]12` [3α-androstenol]: on mCAR (human ALAS1 fragments hA795, hA8, hA174, inverse agonist), the “mCAR induced activity remaining after repression” value is on record as “approximately 50%”.

For `CCC1(c2ccccc2)C(=O)NC(=O)NC1=O.[Na]` [PB, 5-ethyl-5-phenyl-barbituric acid sodium salt], in experiment [1], the “inducibility of 2xhA174, HS1 or HS2 half-site mutated” value is “abolishment of inducibility” and the “induction of 2xhA174, HS3 half-site altered” value is “merely reduces induction levels”. Also, in the experiment on ALAS1 mRNA, the “ALAS1 RNA levels relative to basal transcript levels” value was 16 fold and the “effect on ALAS1 mRNA levels” value is recorded as “strong inducer”. For the same compound, in experiment [2] (600 μM PB, LMH cells), the “PB response of 167 bp ADRES diminished by DR4-3 mutation” value amounted to 75%; the “activation of 167 bp ADRES, DR4-2 mutant” value is on record as 5.4 fold; the “activation of 176 bp ADRES, DR4-1 mutant” value stood at 16 fold; the “activation of 176 bp ADRES, DR5 mutant” value was 6.4 fold. Also, in experiment [2] (600 μM PB, LMH cells), the “activation of wild type 167 bp ADRES” value is given as 60 fold; the “activation of wild type 176 bp ADRES” value was found to be 44 fold; the “induction of 167 bp ADRES, DR4-3 mutant” value stood at 15 fold; the “limitation of 176 bp ADRES activation by DR4-1 mutation” value is “over 60%”. Besides, in experiment [2] (600 μM PB, LMH cells), the “reduction of 176 bp ADRES activity by DR5 mutation” value is recorded as “over 85%” and the “reduction of PB response of 167 bp ADRES by DR4-2 alteration” value was “over 90%”. The “induction over control values, 176 bp and 167 bp elements” value in experiment [2] (LMH cells exposed to PB) was 25-60 fold. In experiment [2] (LMH cells, 600 μM PB), the “transcriptional activation in response to drug treatment, 5056 bp and 3282 bp subfragments” value is listed as “virtually no transcriptional activation”. Also, the “increase in transcriptional activation relative to control values, 7973 bp subfragment” value in experiment [2] (LMH cells, 600 μM PB, 16 h) is reported as 28 fold. For the same compound, the “activation of the 167 bp element compared to the 176 bp element” value in experiment [2] (PB 600 μM, LMH cells) is on record as “twice the activation”.

With `CCCC(C(N)=O)C(C)C` (stereo not drawn) [PIA, Propylisopropylacetamide], in experiment [1], the “inducibility of 2xhA174, HS1 or HS2 half-site mutated” value was “abolishment of inducibility” and the “induction of 2xhA174, HS3 half-site altered” value was “merely reduces induction levels”. Also, in the experiment on mouse 369 bp DRES, the “induction of the 369 bp DRES, ranking of drugs” value was “strongest inducer”. The “ADRES activation in reporter assays” value in experiment [2] (LMH cells, 16 h) is on record as “in excess of levels obtained from PB treatment”.

For `Clc1cnc(Oc2ccc(Oc3ncc(Cl)cc3Cl)cc2)c(Cl)c1` [TCPOBOP, 1,4-Bis[2-(3,5-dichloropyridyloxy)]benzene], the “effect on ALAS1 mRNA levels” value with ALAS1 mRNA (LMH cells, 16 h, PB 600 μM, dexamethasone 50 μM, RU-486 10 μM, rifampicin 100 μM, TCPOBOP 10 μM) is “no response”. Further, the “ADRES activation in reporter assays” value in experiment [2] (LMH cells, 16 h) is on record as “no response”. Further, at mouse CAR, the “induction capacity, DR4-1,2/hs1,2 quadruple mutant” value is listed as “completely eliminated”; the “induction exceeding basal levels, DR4-2/hs1 construct” value came out at 1.4 fold; the “induction, DR4-2/hs2 construct or DR4-2 double mutant” value is recorded as “no induction was observed”; the “response, DR4-1 single and double mutants” value is recorded as “did not exhibit any response”. For the same compound, the “reversal of 3α-androstenol repression of mCAR induced activity” value on mCAR (human ALAS1 fragments, direct agonist) is “reversible”.
